Tested on: 695427-040-R-J1-PDC complex spheroid viability
Assay: Anticancer human tumor 695427-040-R-J1-PDC patient-derived colon adenocarcinoma cell line growth inhibition [RAS]
Details: for IC50: curve of first compound; for viability, T/C: stronger effect = lower value
Text: RAS pathway inhibitors in Combinations in Complex Spheroids
A high-throughput screen of multi-cell type tumor spheroids was designed to identify active combinations of RAS pathway inhibitors and targeted small molecules. Complex spheroids include a stromal component modeled by human endothelial cells (HUVEC) and fibroblasts modeled by human mesenchymal stem cells (MSCs). The concentration ranges selected for each drug and investigational agent were based upon clinically achievable concentrations if the clinical Cmax of the agent was known.
Compounds. The drugs and investigational agents: abemaciclib (NSC768073), cobimetinib (NSC768068), divarasib (GDC6063, NSC841802), docetaxel (NSC628503), GDC-1971 (RLY-1971, NSC841576), gemcitabine (NSC613327), inavolisib (NSC800729), ipatasertib (NSC767898), KB-0742 (NSC834161), MRTX-1133 (NSC836407), osimertinib (NSC779217), RMC-4630 (NSC839698), RMC-6236 (NSC851965), RMC-6291 (NSC852671), Ro-3306 (NSC812927), sapanisertib (NSC764658), SN-38 (NSC673596), staurosporine (NSC755774), SY5609 (NSC837396), and tovorafenib (DAY101, NSC766906), were obtained from the National Cancer Institute (NCI) Developmental Therapeutics Program Chemical Repository. The FDA-approved anticancer drug set is available from the NCI Developmental Therapeutics Program. […] The stock solutions were prepared in dimethyl sulfoxide (DMSO, Sigma-Aldrich, St. Louis, MO, cat. D2650) at 800-fold the tested concentration and stored at -70 degrees C prior to their use. All drugs and investigational agents were tested over a range starting from a high concentration at or near the clinical Cmax and decreasing in half-log increments. If the clinical Cmax for an agent had not been determined, the highest concentration tested was 10 microM.
Cell Culture. All cells were maintained in an incubator at 37 degrees C and 5% CO2 with 95% humidity. The PDC lines were cultured according to standard operating procedures established by the NCI PDMR. All PDCs were thawed and cultured in Matrigel-coated flasks prepared with a working solution of 1X Ham's F-12 nutrient mix, without supplementation (Invitrogen, Waltham, MA, cat. 11765054), 100 U/mL penicillin-streptomycin (Invitrogen, cat. 15140122), and 2.5% Matrigel (Corning Inc., Corning, NY, cat. 354248) for the first three passages. The 362531-283-R-J2-PDC and 782815-120-R-J1-PDC lines were cultured in 6C/Colon 1B media, which includes advanced DMEM/F-12 (Thermo Fisher Scientific, cat. 12634028), 10 mM HEPES (Thermo Fisher Scientific, cat. 15630080), 1X GlutaMAX supplement (Thermo Fisher Scientific, cat. 35050061), 0.1 mg/mL primocin (InvivoGen, San Diego, CA, cat. ant-pm-2), 10% defined fetal bovine serum, heat inactivated (HyClone Laboratories Inc., Logan, UT, cat. SH30070.03HI), 50% L-WRN conditioned media (ATCC, cat. CRL-3276), 1.25 mM N-Acetyl-L-cysteine (Sigma-Aldrich, cat. A9165), 10 mM nicotinamide (Sigma-Aldrich, cat. N0636), 1X B-27 supplement (Thermo Fisher Scientific, cat. 17504044), 1X N-2 supplement (Thermo Fisher Scientific, cat. 17502048), 50 ng/mL human EGF (Thermo Fisher Scientific, cat. PHG0311), and 10 microM Y-27632 dihydrochloride (Tocris Bioscience, cat. 1254). The K12877-001-R-J1-PDC line was cultured in 6I media, which includes all 6C/Colon 1B media plus 10 ng/mL human FGF-10 (PeproTech, cat. 100-26), 1 ng/mL human FGF-2 (PeproTech, cat. 100-18B), 1 µM prostaglandin E2 (Tocris Bioscience, cat. 2296), […] hydrocortisone (Sigma-Aldrich, cat. H4001), and […] bovine insulin (Sigma-Aldrich, cat. I6634). The K86415-001-R-J1-PDC line was cultured in 6D media, which includes all 6C/Colon 1B media components minus the L-WRN conditioned media. The 485176-168-R4-J1-PDC was cultured in PANC media, which includes all 6C/Colon 1B media plus 100 ng/mL human FGF-10 (PeproTech, cat. 100-26), 500 nM SB-431542 (Selleckchem, cat. S1067), and 10 nM gastrin (Tocris Bioscience, cat. 3006). […]

[1] = second compound 0.0316 µM, first compound 0.0316 µM
[2] = second compound 0.0316 µM, first compound 0.1 µM
[3] = second compound 0.0316 µM, first compound 0.316 µM
[4] = second compound 0.0316 µM, first compound 1 µM
[5] = second compound 0.0316 µM, first compound 3.16 µM
[6] = second compound 0.0316 µM, first compound 10 µM
[7] = second compound 0.1 µM, first compound 0.0316 µM
[8] = second compound 0.1 µM, first compound 0.1 µM
[9] = second compound 0.1 µM, first compound 0.316 µM
[10] = second compound 0.1 µM, first compound 1 µM
[11] = second compound 0.1 µM, first compound 3.16 µM
[12] = second compound 0.1 µM, first compound 10 µM
[13] = second compound 0.316 µM, first compound 0.0316 µM
[14] = second compound 0.316 µM, first compound 0.1 µM
[15] = second compound 0.316 µM, first compound 0.316 µM
[16] = second compound 0.316 µM, first compound 1 µM
[17] = second compound 0.316 µM, first compound 3.16 µM
[18] = second compound 0.316 µM, first compound 10 µM
[19] = second compound 1 µM, first compound 0.0316 µM
[20] = second compound 1 µM, first compound 0.1 µM
[21] = second compound 1 µM, first compound 0.316 µM
[22] = second compound 1 µM, first compound 1 µM
[23] = second compound 1 µM, first compound 3.16 µM
[24] = second compound 1 µM, first compound 10 µM
[25] = second compound 3.16 µM, first compound 0.0316 µM
[26] = second compound 3.16 µM, first compound 0.1 µM
[27] = second compound 3.16 µM, first compound 0.316 µM
[28] = second compound 3.16 µM, first compound 1 µM
[29] = second compound 3.16 µM, first compound 3.16 µM
[30] = second compound 3.16 µM, first compound 10 µM
[31] = second compound 10 µM, first compound 0.0316 µM
[32] = second compound 10 µM, first compound 0.1 µM
[33] = second compound 10 µM, first compound 0.316 µM
[34] = second compound 10 µM, first compound 1 µM
[35] = second compound 10 µM, first compound 3.16 µM
[36] = second compound 10 µM, first compound 10 µM
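Further: viability read after seven days of drug exposure.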
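Wherever viability, T/C is given: 100% = DMSO vehicle control viability.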

## CC1(O)CCCC1n1c(=O)c(C(F)F)cc2cnc(NC3CCN(S(C)(=O)=O)CC3)nc21 (centres undefined) + C#Cc1c(F)ccc2cc(O)cc(-c3ncc4c(N5CC6CCC(C5)N6)nc(OCC56CCCN5CC(F)C6)nc4c3F)c12
Second compound 0.0316 µM
  IC50: > 10000 nM
Second compound 0.1 µM
  IC50: > 10000 nM
Second compound 0.316 µM
  IC50: 8960 nM
Second compound 1 µM
  IC50: 7320 nM
Second compound 3.16 µM
  IC50: 4290 nM
Second compound 10 µM
  IC50: < 31.6 nM
[1]
  viability, T/C: 95.4%
[2]
  viability, T/C: 95.5%
[3]
  viability, T/C: 103%
[4]
  viability, T/C: 123%
[5]
  viability, T/C: 122%
[6]
  viability, T/C: 57.4%
[7]
  viability, T/C: 104%
[8]
  viability, T/C: 94.7%
[9]
  viability, T/C: 109%
[10]
  viability, T/C: 120%
[11]
  viability, T/C: 114%
[12]
  viability, T/C: 52.5%
[13]
  viability, T/C: 84%
[14]
  viability, T/C: 80.6%
[15]
  viability, T/C: 97.6%
[16]
  viability, T/C: 103%
[17]
  viability, T/C: 104%
[18]
  viability, T/C: 45.4%
[19]
  viability, T/C: 82.7%
[20]
  viability, T/C: 75.3%
[21]
  viability, T/C: 78.7%
[22]
  viability, T/C: 89.8%
[23]
  viability, T/C: 84.2%
[24]
  viability, T/C: 38.1%
[25]
  viability, T/C: 59.7%
[26]
  viability, T/C: 54.7%
[27]
  viability, T/C: 64.3%
[28]
  viability, T/C: 57.4%
[29]
  viability, T/C: 57.3%
[30]
  viability, T/C: 30%
[31]
  viability, T/C: 42.9%
[32]
  viability, T/C: 41.9%
[33]
  viability, T/C: 42.1%
[34]
  viability, T/C: 43.4%
[35]
  viability, T/C: 36.1%
[36]
  viability, T/C: 15.6%

## CCC(CC)c1cc(NC2CCC(N)C2)n2nccc2n1 (centres undefined) + C#Cc1c(F)ccc2cc(O)cc(-c3ncc4c(N5CC6CCC(C5)N6)nc(OCC56CCCN5CC(F)C6)nc4c3F)c12
Second compound 0.0316 µM
  IC50: 1960 nM
Second compound 0.1 µM
  IC50: 1890 nM
Second compound 0.316 µM
  IC50: 1800 nM
Second compound 1 µM
  IC50: 1600 nM
Second compound 3.16 µM
  IC50: 1240 nM
Second compound 10 µM
  IC50: < 31.6 nM
[1]
  viability, T/C: 102%
[2]
  viability, T/C: 109%
[3]
  viability, T/C: 110%
[4]
  viability, T/C: 110%
[5]
  viability, T/C: 5.99%
[6]
  viability, T/C: 12.4%
[7]
  viability, T/C: 95.5%
[8]
  viability, T/C: 90.5%
[9]
  viability, T/C: 108%
[10]
  viability, T/C: 101%
[11]
  viability, T/C: 6.65%
[12]
  viability, T/C: 13.9%
[13]
  viability, T/C: 99.3%
[14]
  viability, T/C: 90.8%
[15]
  viability, T/C: 97.2%
[16]
  viability, T/C: 91.3%
[17]
  viability, T/C: 7.6%
[18]
  viability, T/C: 13.9%
[19]
  viability, T/C: 76.9%
[20]
  viability, T/C: 70.5%
[21]
  viability, T/C: 76.8%
[22]
  viability, T/C: 82.1%
[23]
  viability, T/C: 6.13%
[24]
  viability, T/C: 17%
[25]
  viability, T/C: 66.9%
[26]
  viability, T/C: 59.6%
[27]
  viability, T/C: 64.9%
[28]
  viability, T/C: 59.2%
[29]
  viability, T/C: 4.92%
[30]
  viability, T/C: 15.3%
[31]
  viability, T/C: 40.6%
[32]
  viability, T/C: 43.7%
[33]
  viability, T/C: 43.6%
[34]
  viability, T/C: 38.2%
[35]
  viability, T/C: 1.94%
[36]
  viability, T/C: 7.42%

From PubChem BioAssay AID2060888 (Molecular Pharmacology Branch, DTP, NCI, 2025)
